Test results from US20230144436A1, “MUSCLE TARGETING COMPLEXES AND USES THEREOF FOR TREATING MYOTONIC DYSTROPHY” (Dyne Therapeutics, Inc., priority 2020, published 2023).

System: DMPK
Test: DMPK knockdown by transfected antisense oligonucleotides in DM1 C15 myotubes at 0.5 nM and 50 nM
Format: cell-based
Conditions: 0.5 nM oligonucleotide, 72 hours
In short: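 Seven-day-differentiated DM1 C15 myotubes transfected (Lipofectamine MessengerMax) with each oligonucleotide at 0.5 nM or 50 nM final, biological triplicates. After 72 h, DMPK mRNA quantified by qPCR, expressed relative to vehicle-only transfection set to 1.00.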

| Substance | Percent DMPK Reduction [%] |
| --- | --- |
| 396 (ACAGACAAUAAAUACCGAGG; chemistry not given here) [compound 396] | -3.95 |
| 397 (GGACAGACAAUAAAUACCGA; chemistry not given here) [compound 397] | 22.57 |
| 398 (ACGUGUGCCUCUAGGUCCCG; chemistry not given here) [compound 398] | 16.47 |
| 399 (GGCACGAGACAGAACAACGG; chemistry not given here) [compound 399] | 16.10 |
| 400 (UGACCAGGUACAGGUAGUUC; chemistry not given here) [compound 400] | 22.00 |
| 401 (CUCUGCCGGGUGAGCACCUC; chemistry not given here) [compound 401] | 25.25 |
| 402 (GACAAUCUCCGCCAGGUAGA; chemistry not given here) [compound 402] | 23.70 |
| 403 (UCUCCGCCAGGUAGAAGCGC; chemistry not given here) [compound 403] | 19.59 |

Same assay, conditions: 0.5 nM oligonucleotide, 72 hours, qPCR, relative to vehicle control

| Substance | Percent DMPK Reduction [%] |
| --- | --- |
| 365 (UCUCAGUGCAUCCAAAACGU; chemistry not given here) [compound 365] | 10.88 |
| 366 (UUUGGGCAGAUGGAGGGCCU; chemistry not given here) [compound 366] | 35.14 |
| 367 (GAUGUCCCUGUGCACGUAGC; chemistry not given here) [compound 367] | 18.99 |
| 368 (CAGCAGUGUCAGCAGGUCCC; chemistry not given here) [compound 368] | 25.67 |
| 369 (CAUGACAAUCUCCGCCAGGU; chemistry not given here) [compound 369] | 29.45 |
| 370 (ACUUGUUCAUGAUCUUCAUG; chemistry not given here) [compound 370] | 25.47 |
| 371 (GUGGAAUCCGCGUAGAAGGG; chemistry not given here) [compound 371] | 30.55 |
| 372 (UGGCCAUGACAAUCUCCGCC; chemistry not given here) [compound 372] | 30.46 |
| 373 (GGGACAGACAAUAAAUACCG; chemistry not given here) [compound 373] | 27.19 |
| 374 (CCGCUCCCCAAACUUGCUCA; chemistry not given here) [compound 374] | 0.28 |
| 375 (CGGCUCAGGCUCUGCCGGGU; chemistry not given here) [compound 375] | 17.97 |
| 376 (GGCUCCUGGGCGGCGCCAGA; chemistry not given here) [compound 376] | 0.05 |

Same assay, conditions: 0.5 nM oligonucleotide, 72 hours, qPCR, relative to vehicle control = 1.00

| Substance | Normalized DMPK Remaining |
| --- | --- |
| 365 (UCUCAGUGCAUCCAAAACGU; chemistry not given here) [compound 365] | 0.89 |
| 366 (UUUGGGCAGAUGGAGGGCCU; chemistry not given here) [compound 366] | 0.65 |
| 367 (GAUGUCCCUGUGCACGUAGC; chemistry not given here) [compound 367] | 0.81 |
| 368 (CAGCAGUGUCAGCAGGUCCC; chemistry not given here) [compound 368] | 0.74 |
| 369 (CAUGACAAUCUCCGCCAGGU; chemistry not given here) [compound 369] | 0.71 |
| 370 (ACUUGUUCAUGAUCUUCAUG; chemistry not given here) [compound 370] | 0.75 |
| 371 (GUGGAAUCCGCGUAGAAGGG; chemistry not given here) [compound 371] | 0.69 |
| 372 (UGGCCAUGACAAUCUCCGCC; chemistry not given here) [compound 372] | 0.70 |
| 373 (GGGACAGACAAUAAAUACCG; chemistry not given here) [compound 373] | 0.73 |
| 374 (CCGCUCCCCAAACUUGCUCA; chemistry not given here) [compound 374] | 1.00 |
| 375 (CGGCUCAGGCUCUGCCGGGU; chemistry not given here) [compound 375] | 0.82 |
| 376 (GGCUCCUGGGCGGCGCCAGA; chemistry not given here) [compound 376] | 1.00 |

Same assay, conditions: 0.5 nM oligonucleotide, 72 hours, relative to vehicle control = 1.00

| Substance | Normalized DMPK Remaining |
| --- | --- |
| 396 (ACAGACAAUAAAUACCGAGG; chemistry not given here) [compound 396] | 1.04 |
| 397 (GGACAGACAAUAAAUACCGA; chemistry not given here) [compound 397] | 0.77 |
| 398 (ACGUGUGCCUCUAGGUCCCG; chemistry not given here) [compound 398] | 0.84 |
| 399 (GGCACGAGACAGAACAACGG; chemistry not given here) [compound 399] | 0.84 |
| 400 (UGACCAGGUACAGGUAGUUC; chemistry not given here) [compound 400] | 0.78 |
| 401 (CUCUGCCGGGUGAGCACCUC; chemistry not given here) [compound 401] | 0.75 |
| 402 (GACAAUCUCCGCCAGGUAGA; chemistry not given here) [compound 402] | 0.76 |
| 403 (UCUCCGCCAGGUAGAAGCGC; chemistry not given here) [compound 403] | 0.80 |

Same assay, conditions: 50 nM oligonucleotide, 72 hours

| Substance | Percent DMPK Reduction [%] |
| --- | --- |
| 396 (ACAGACAAUAAAUACCGAGG; chemistry not given here) [compound 396] | 74.02 |
| 397 (GGACAGACAAUAAAUACCGA; chemistry not given here) [compound 397] | 52.51 |
| 398 (ACGUGUGCCUCUAGGUCCCG; chemistry not given here) [compound 398] | 77.73 |
| 399 (GGCACGAGACAGAACAACGG; chemistry not given here) [compound 399] | 68.01 |
| 400 (UGACCAGGUACAGGUAGUUC; chemistry not given here) [compound 400] | 63.73 |
| 401 (CUCUGCCGGGUGAGCACCUC; chemistry not given here) [compound 401] | 74.36 |
| 402 (GACAAUCUCCGCCAGGUAGA; chemistry not given here) [compound 402] | 49.82 |
| 403 (UCUCCGCCAGGUAGAAGCGC; chemistry not given here) [compound 403] | 66.52 |

Same assay, conditions: 50 nM oligonucleotide, 72 hours, qPCR, relative to vehicle control

| Substance | Percent DMPK Reduction [%] |
| --- | --- |
| 365 (UCUCAGUGCAUCCAAAACGU; chemistry not given here) [compound 365] | 51.34 |
| 366 (UUUGGGCAGAUGGAGGGCCU; chemistry not given here) [compound 366] | 70.00 |
| 367 (GAUGUCCCUGUGCACGUAGC; chemistry not given here) [compound 367] | 62.46 |
| 368 (CAGCAGUGUCAGCAGGUCCC; chemistry not given here) [compound 368] | 51.97 |
| 369 (CAUGACAAUCUCCGCCAGGU; chemistry not given here) [compound 369] | 70.52 |
| 370 (ACUUGUUCAUGAUCUUCAUG; chemistry not given here) [compound 370] | 52.89 |
| 371 (GUGGAAUCCGCGUAGAAGGG; chemistry not given here) [compound 371] | 49.34 |
| 372 (UGGCCAUGACAAUCUCCGCC; chemistry not given here) [compound 372] | 72.55 |
| 373 (GGGACAGACAAUAAAUACCG; chemistry not given here) [compound 373] | 50.50 |
| 374 (CCGCUCCCCAAACUUGCUCA; chemistry not given here) [compound 374] | 56.82 |
| 375 (CGGCUCAGGCUCUGCCGGGU; chemistry not given here) [compound 375] | 69.03 |
| 376 (GGCUCCUGGGCGGCGCCAGA; chemistry not given here) [compound 376] | 96.23 |

Same assay, conditions: 50 nM oligonucleotide, 72 hours, qPCR, relative to vehicle control = 1.00

| Substance | Normalized DMPK Remaining |
| --- | --- |
| 365 (UCUCAGUGCAUCCAAAACGU; chemistry not given here) [compound 365] | 0.49 |
| 366 (UUUGGGCAGAUGGAGGGCCU; chemistry not given here) [compound 366] | 0.30 |
| 367 (GAUGUCCCUGUGCACGUAGC; chemistry not given here) [compound 367] | 0.38 |
| 368 (CAGCAGUGUCAGCAGGUCCC; chemistry not given here) [compound 368] | 0.48 |
| 369 (CAUGACAAUCUCCGCCAGGU; chemistry not given here) [compound 369] | 0.29 |
| 370 (ACUUGUUCAUGAUCUUCAUG; chemistry not given here) [compound 370] | 0.47 |
| 371 (GUGGAAUCCGCGUAGAAGGG; chemistry not given here) [compound 371] | 0.51 |
| 372 (UGGCCAUGACAAUCUCCGCC; chemistry not given here) [compound 372] | 0.27 |
| 373 (GGGACAGACAAUAAAUACCG; chemistry not given here) [compound 373] | 0.49 |
| 374 (CCGCUCCCCAAACUUGCUCA; chemistry not given here) [compound 374] | 0.43 |
| 375 (CGGCUCAGGCUCUGCCGGGU; chemistry not given here) [compound 375] | 0.31 |
| 376 (GGCUCCUGGGCGGCGCCAGA; chemistry not given here) [compound 376] | 0.04 |

Same assay, conditions: 50 nM oligonucleotide, 72 hours, relative to vehicle control = 1.00

| Substance | Normalized DMPK Remaining |
| --- | --- |
| 396 (ACAGACAAUAAAUACCGAGG; chemistry not given here) [compound 396] | 0.26 |
| 397 (GGACAGACAAUAAAUACCGA; chemistry not given here) [compound 397] | 0.47 |
| 398 (ACGUGUGCCUCUAGGUCCCG; chemistry not given here) [compound 398] | 0.22 |
| 399 (GGCACGAGACAGAACAACGG; chemistry not given here) [compound 399] | 0.32 |
| 400 (UGACCAGGUACAGGUAGUUC; chemistry not given here) [compound 400] | 0.36 |
| 401 (CUCUGCCGGGUGAGCACCUC; chemistry not given here) [compound 401] | 0.26 |
| 402 (GACAAUCUCCGCCAGGUAGA; chemistry not given here) [compound 402] | 0.50 |
| 403 (UCUCCGCCAGGUAGAAGCGC; chemistry not given here) [compound 403] | 0.33 |
